Here are results for one compound from article PMC9022726 (International journal of biological macromolecules, 2021).

The assay deals with tau K18 (Homo sapiens, UniProt P10636). In words: intrinsic fisetin fluorescence titration. It is filed as binding.
Chain of tau K18 (P10636 561-689): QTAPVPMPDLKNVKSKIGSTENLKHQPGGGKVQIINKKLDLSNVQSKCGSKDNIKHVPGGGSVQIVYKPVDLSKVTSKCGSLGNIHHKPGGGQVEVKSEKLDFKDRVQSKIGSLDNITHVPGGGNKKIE

`O=c1c(O)c(-c2ccc(O)c(O)c2)oc2cc(O)ccc12` [fisetin] came in with a Kd of 22.6 ± 1.81 µM.

The term Kd denotes the concentration at which binding is half-saturated.
